In ChEMBL document CHEMBL2203015, “Synthesis and biological evaluation of 5-aryloxypyrazole derivatives bearing a rhodanine-3-aromatic acid as potential antimicrobial agents” (Bioorg Med Chem Lett, 2012):
Values after ≈ are worked out from the molar mass of the structure shown.

Experiments:
Format in all cases: functional
Staphylococcus aureus [1] = experiment: Potency index, ratio of MIC for norfloxacin to MIC for compound against multidrug-resistant Staphylococcus aureus CCARM 3167 incubated for 24 hrs serial dilution method
Escherichia coli = experiment: Antibacterial activity against Escherichia coli 1356 incubated for 24 hrs serial dilution method; settings: Escherichia coli, 1356, 24 h
Staphylococcus aureus [2] = experiment: Antibacterial activity against quinolone-resistant Staphylococcus aureus CCARM 3519 incubated for 24 hrs serial dilution method; settings: CCARM 3519, 24 h
Staphylococcus aureus [3] = experiment: Antibacterial activity against multidrug-resistant Staphylococcus aureus CCARM 3167 incubated for 24 hrs serial dilution method; settings: CCARM 3167, 24 h
Staphylococcus aureus [4] = experiment: Potency index, ratio of MIC for norfloxacin to MIC for compound against quinolone-resistant Staphylococcus aureus CCARM 3505 incubated for 24 hrs serial dilution method
Staphylococcus aureus [5] = experiment: Antibacterial activity against Staphylococcus aureus RN 4220 incubated for 24 hrs serial dilution method; settings: RN 4220, 24 h
Staphylococcus aureus [6] = experiment: Antibacterial activity against multidrug-resistant Staphylococcus aureus CCARM 3506 incubated for 24 hrs serial dilution method; settings: CCARM 3506, 24 h
Staphylococcus aureus [7] = experiment: Potency index, ratio of MIC for norfloxacin to MIC for compound against multidrug-resistant Staphylococcus aureus CCARM 3506 incubated for 24 hrs serial dilution method
Staphylococcus aureus [8] = experiment: Antibacterial activity against Staphylococcus aureus KCTC 503 incubated for 24 hrs serial dilution method; settings: KCTC 503, 24 h
Staphylococcus aureus [9] = experiment: Antibacterial activity against quinolone-resistant Staphylococcus aureus CCARM 3505 incubated for 24 hrs serial dilution method; settings: CCARM 3505, 24 h
Staphylococcus aureus [10] = experiment: Potency index, ratio of MIC for norfloxacin to MIC for compound against quinolone-resistant Staphylococcus aureus CCARM 3519 incubated for 24 hrs serial dilution method
Staphylococcus aureus [11] = experiment: Antibacterial activity against Staphylococcus aureus KCTC 209 incubated for 24 hrs serial dilution method; settings: KCTC 209, 24 h

Row | SMILES | Ratio (Staphylococcus aureus [1]) | MIC (Escherichia coli) | MIC (Staphylococcus aureus [2]) | MIC (Staphylococcus aureus [3]) | Ratio (Staphylococcus aureus [4]) | MIC (Staphylococcus aureus [5]) | MIC (Staphylococcus aureus [6]) | Ratio (Staphylococcus aureus [7]) | MIC (Staphylococcus aureus [8]) | MIC (Staphylococcus aureus [9]) | Ratio (Staphylococcus aureus [10]) | MIC (Staphylococcus aureus [11])
1 | Cc1nn(-c2ccccc2)c(Oc2cccc(Cl)c2)c1/C=C1\SC(=S)N([C@@H](Cc2ccccc2)C(=O)O)C1=O | 2 | > 64 µg/mL | 8 µg/mL (≈ 13.9 µM) | 4 µg/mL (≈ 6.94 µM) | 4 | 4 µg/mL (≈ 6.94 µM) | 4 µg/mL (≈ 6.94 µM) | 2 | > 64 µg/mL | 4 µg/mL (≈ 6.94 µM) | 4 | > 64 µg/mL
2 | Cc1nn(-c2ccccc2)c(Oc2ccc(Cl)cc2)c1/C=C1\SC(=S)N([C@@H](Cc2ccccc2)C(=O)O)C1=O | 2 | > 64 µg/mL | 4 µg/mL (≈ 6.94 µM) | 2 µg/mL (≈ 3.47 µM) | 4 | 4 µg/mL (≈ 6.94 µM) | 4 µg/mL (≈ 6.94 µM) | 2 | > 64 µg/mL | 4 µg/mL (≈ 6.94 µM) | 4 | > 64 µg/mL
3 | Cc1ccccc1Oc1c(/C=C2\SC(=S)N([C@@H](Cc3ccccc3)C(=O)O)C2=O)c(C)nn1-c1ccccc1 | 2 | > 64 µg/mL | 8 µg/mL (≈ 14.4 µM) | 4 µg/mL (≈ 7.2 µM) | 4 | 4 µg/mL (≈ 7.2 µM) | 8 µg/mL (≈ 14.4 µM) | 2 | > 64 µg/mL | 8 µg/mL (≈ 14.4 µM) | 4 | > 64 µg/mL
4 | Cc1ccc(Oc2c(/C=C3\SC(=S)N([C@@H](Cc4ccccc4)C(=O)O)C3=O)c(C)nn2-c2ccccc2)c(C)c1 | 2 | > 64 µg/mL | 2 µg/mL (≈ 3.51 µM) | 2 µg/mL (≈ 3.51 µM) | 4 | 2 µg/mL (≈ 3.51 µM) | 2 µg/mL (≈ 3.51 µM) | 2 | > 64 µg/mL | 2 µg/mL (≈ 3.51 µM) | 4 | > 64 µg/mL
5 | Cc1nn(-c2ccccc2)c(Oc2ccc3ccccc3c2)c1/C=C1\SC(=S)N([C@@H](Cc2ccccc2)C(=O)O)C1=O | 2 | > 64 µg/mL | 2 µg/mL (≈ 3.38 µM) | 2 µg/mL (≈ 3.38 µM) | 4 | 2 µg/mL (≈ 3.38 µM) | 2 µg/mL (≈ 3.38 µM) | 2 | > 64 µg/mL | 2 µg/mL (≈ 3.38 µM) | 4 | > 64 µg/mL
6 | Cc1nn(-c2ccccc2)c(Oc2ccccc2Cl)c1/C=C1\SC(=S)N([C@@H](Cc2c[nH]c3ccccc23)C(=O)O)C1=O | – | > 64 µg/mL | 4 µg/mL (≈ 6.5 µM) | 2 µg/mL (≈ 3.25 µM) | – | 4 µg/mL (≈ 6.5 µM) | 4 µg/mL (≈ 6.5 µM) | – | > 64 µg/mL | 4 µg/mL (≈ 6.5 µM) | – | > 64 µg/mL
7 | COc1ccccc1Oc1c(/C=C2\SC(=S)N([C@@H](Cc3c[nH]c4ccccc34)C(=O)O)C2=O)c(C)nn1-c1ccccc1 | – | > 64 µg/mL | 8 µg/mL (≈ 13.1 µM) | 8 µg/mL (≈ 13.1 µM) | – | 16 µg/mL (≈ 26.2 µM) | 8 µg/mL (≈ 13.1 µM) | – | > 64 µg/mL | 8 µg/mL (≈ 13.1 µM) | – | > 64 µg/mL
8 | Cc1nn(-c2ccccc2)c(Oc2ccc(Cl)cc2Cl)c1/C=C1\SC(=S)N([C@@H](Cc2ccc(O)cc2)C(=O)O)C1=O | – | > 64 µg/mL | 8 µg/mL (≈ 12.8 µM) | 8 µg/mL (≈ 12.8 µM) | – | 8 µg/mL (≈ 12.8 µM) | 8 µg/mL (≈ 12.8 µM) | – | > 64 µg/mL | 8 µg/mL (≈ 12.8 µM) | – | > 64 µg/mL
9 | Cc1nn(-c2ccccc2)c(Oc2ccc3ccccc3c2)c1/C=C1\SC(=S)N([C@@H](Cc2ccc(O)cc2)C(=O)O)C1=O | – | > 64 µg/mL | 8 µg/mL (≈ 13.2 µM) | 8 µg/mL (≈ 13.2 µM) | – | 8 µg/mL (≈ 13.2 µM) | 8 µg/mL (≈ 13.2 µM) | – | > 64 µg/mL | 8 µg/mL (≈ 13.2 µM) | – | > 64 µg/mL
10 | Cc1nn(-c2ccccc2)c(Oc2ccc(Cl)cc2)c1/C=C1\SC(=S)N([C@@H](Cc2c[nH]c3ccccc23)C(=O)O)C1=O | – | > 64 µg/mL | 2 µg/mL (≈ 3.25 µM) | 2 µg/mL (≈ 3.25 µM) | – | 2 µg/mL (≈ 3.25 µM) | 2 µg/mL (≈ 3.25 µM) | – | > 64 µg/mL | 2 µg/mL (≈ 3.25 µM) | – | > 64 µg/mL
11 | Cc1ccccc1Oc1c(/C=C2\SC(=S)N([C@@H](Cc3ccc(O)cc3)C(=O)O)C2=O)c(C)nn1-c1ccccc1 | – | > 64 µg/mL | 32 µg/mL (≈ 56 µM) | 16 µg/mL (≈ 28 µM) | – | 16 µg/mL (≈ 28 µM) | 16 µg/mL (≈ 28 µM) | – | > 64 µg/mL | 32 µg/mL (≈ 56 µM) | – | > 64 µg/mL
